Measured values reported in US12281363B2, “Methods for detecting antiviral-drug resistant virus” (Secretary of State for Health and Social Care, priority 2018, dated 2025).
Where two headings read alike, the source gives them in different places.

Test system: HSV-2
Experiment: Plaque reduction assay, HSV-2 clinical isolates on Vero cells
Format: cell-based
Conditions: Human alphaherpesvirus 2, Vero
Text: Viral isolates were used to infect a sub-confluent monolayer of Vero cells at a concentration of 75 or 50 plaque forming units (PFU) per well for HSV-1 and HSV-2, respectively. […] CMC medium typically used to create a semisolid interface and prevents indiscrimate viral spreading. Other materials (e.g. agar) may also be used to create this interface.
Cells were fixed with 10% formalin and stained with crystal violet before enumeration of the plaques (microscopic observation or use of fluorescent antibodies for detection is also suitable). The data obtained from these experiments were then expressed as percent inhibition of viral infectivity relative to the no drug control.
Definitions of phenotypic drug susceptibility classification as sensitive or resistant were as follows: ACV, <3 μM or >40 μM; PCV, <10 μM or >40 μM; CDV, <24 μM or >30 μM; FOS, <250 μM or >400 μM; and ACV, <6.5 μM or >40 μM; PCV, <38 μM or >40 μM; FOS, <250 μM or >400 μM for HSV-1 and HSV-2, respectively. Any IC50 values falling in between these sensitive and resistant cut-offs were reported as intermediate resistance.
The phenotype (i.e. reactivity to a drug) of the virus was characterised by the plaque reduction assay as described above. The present inventors have characterised the resistance-causing phenotype of a large number of TK and DNA pol mutations.

Compound: O=C(O)P(=O)(O)O [Foscarnet, foscarnet]
- IC50 (isolate HPG001, HSV-2 TK A125T (373G>A), read-out: Drug susceptibility (IC50 value)): 236 µM
- IC50 (isolate HPG001, HSV-2 TK A125T (373G>A), read-out: Drug susceptibility Foscarnet (FOS)): < 250 µM
- IC50 (isolate HPG001, HSV-2 pol H714R (2141A>G), read-out: Drug susceptibility (IC50 value)): 236 µM
- IC50 (isolate HPG001, HSV-2 pol H714R (2141A>G), read-out: Drug susceptibility Foscarnet (FOS)): < 250 µM
- IC50 (isolate HPG004, HSV-2 pol M494T (1481T>C), also pol S729N, read-out: Drug susceptibility (IC50 value)): 349 µM
- IC50 (isolate HPG004, HSV-2 pol M494T (1481T>C), also pol S729N, read-out: Drug susceptibility Foscarnet (FOS)): 250 to 400 µM
- IC50 (isolate HPG007, HSV-2 pol R628G (1882C>G), read-out: Drug susceptibility (IC50 value)): 783 µM
- IC50 (isolate HPG007, HSV-2 pol R628G (1882C>G), read-out: Drug susceptibility Foscarnet (FOS)): > 400 µM
- IC50 (isolate HPG017, HSV-2 TK Q186H (558G>T), read-out: Drug susceptibility (IC50 value)): 118 µM
- IC50 (isolate HPG017, HSV-2 TK Q186H (558G>T), read-out: Drug susceptibility Foscarnet (FOS)): < 250 µM
- IC50 (isolate HPG022, HSV-2 TK E213D (639A>C), read-out: Drug susceptibility (IC50 value)): 82 µM
- IC50 (isolate HPG022, HSV-2 TK E213D (639A>C), read-out: Drug susceptibility Foscarnet (FOS)): < 250 µM
- IC50 (isolate HPG022, HSV-2 pol D174Y (520G>T), read-out: Drug susceptibility (IC50 value)): 82 µM
- IC50 (isolate HPG022, HSV-2 pol D174Y (520G>T), read-out: Drug susceptibility Foscarnet (FOS)): < 250 µM
- IC50 (isolate HPG023, HSV-2 TK Q186H (558G>T), read-out: Drug susceptibility (IC50 value)): 78 µM
- IC50 (isolate HPG023, HSV-2 TK Q186H (558G>T), read-out: Drug susceptibility Foscarnet (FOS)): < 250 µM
- IC50 (isolate HPG024, HSV-2 TK E213D (639A>C), read-out: Drug susceptibility (IC50 value)): 88.7 µM
- IC50 (isolate HPG024, HSV-2 TK E213D (639A>C), read-out: Drug susceptibility Foscarnet (FOS)): < 250 µM
- IC50 (isolate HPG028, HSV-2 TK 98stop or A94fs (276delG, 278delG, 279delG, or 280delG), read-out: Drug susceptibility (IC50 value)): 98.8 µM
- IC50 (isolate HPG028, HSV-2 TK 98stop or A94fs (276delG, 278delG, 279delG, or 280delG), read-out: Drug susceptibility Foscarnet (FOS)): < 250 µM
- IC50 (isolate HPG028, HSV-2 pol E776Q (2326G>C), also TK deletion (G) nt 276-280, read-out: Drug susceptibility (IC50 value)): 98.8 µM
- IC50 (isolate HPG028, HSV-2 pol E776Q (2326G>C), also TK deletion (G) nt 276-280, read-out: Drug susceptibility Foscarnet (FOS)): < 250 µM
- IC50 (isolate HPG028, HSV-2 pol R775C, R775W (2323C>T; 2325C>G), also TK deletion (G) nt 276-280, read-out: Drug susceptibility (IC50 value)): 98.8 µM
- IC50 (isolate HPG028, HSV-2 pol R775C, R775W (2323C>T; 2325C>G), also TK deletion (G) nt 276-280, read-out: Drug susceptibility Foscarnet (FOS)): < 250 µM
- IC50 (isolate HPG030, HSV-2 TK Q90stop (268C>T), read-out: Drug susceptibility (IC50 value)): 92.3 µM
- IC50 (isolate HPG030, HSV-2 TK Q90stop (268C>T), read-out: Drug susceptibility Foscarnet (FOS)): < 250 µM
- IC50 (isolate HPG030, HSV-2 pol E761K (2281G>A), also TK Q90stop, read-out: Drug susceptibility (IC50 value)): 92.3 µM
- IC50 (isolate HPG030, HSV-2 pol E761K (2281G>A), also TK Q90stop, read-out: Drug susceptibility Foscarnet (FOS)): < 250 µM
- IC50 (isolate HPG034, HSV-2 TK L313S (938A>C), read-out: Drug susceptibility Foscarnet (FOS)): < 250 µM
- IC50 (isolate HPG036, HSV-2 TK E84K (250G>A), read-out: Drug susceptibility (IC50 value)): 78.8 µM
- IC50 (isolate HPG036, HSV-2 TK E84K (250G>A), read-out: Drug susceptibility Foscarnet (FOS)): < 250 µM
- IC50 (isolate HPG038, HSV-2 TK R34C (100C>T), read-out: Drug susceptibility (IC50 value)): 73.7 µM
- IC50 (isolate HPG038, HSV-2 TK R34C (100C>T), read-out: Drug susceptibility Foscarnet (FOS)): < 250 µM
- IC50 (isolate HPG044, HSV-2 TK M86L (256A>C), read-out: Drug susceptibility (IC50 value)): 73.8 µM
- IC50 (isolate HPG044, HSV-2 TK M86L (256A>C), read-out: Drug susceptibility Foscarnet (FOS)): < 250 µM
- IC50 (isolate HPG048, HSV-2 TK Q90stop (268C>T), read-out: Drug susceptibility (IC50 value)): 56.9 µM
- IC50 (isolate HPG048, HSV-2 TK Q90stop (268C>T), read-out: Drug susceptibility Foscarnet (FOS)): < 250 µM
- IC50 (isolate HPG048, HSV-2 pol E761K (2281G>A), also TK Q90stop, read-out: Drug susceptibility (IC50 value)): 56.9 µM
- IC50 (isolate HPG048, HSV-2 pol E761K (2281G>A), also TK Q90stop, read-out: Drug susceptibility Foscarnet (FOS)): < 250 µM
- IC50 (isolate HPG057, HSV-2 TK 98stop or A94fs (276delG, 278delG, 279delG, or 280delG), read-out: Drug susceptibility (IC50 value)): 98.5 µM
- IC50 (isolate HPG057, HSV-2 TK 98stop or A94fs (276delG, 278delG, 279delG, or 280delG), read-out: Drug susceptibility Foscarnet (FOS)): < 250 µM
- IC50 (isolate HPG058, HSV-2 TK 183stop or P154fs (458delC, 459delC, 460delC, or 461delC), read-out: Drug susceptibility (IC50 value)): 59 µM
- IC50 (isolate HPG058, HSV-2 TK 183stop or P154fs (458delC, 459delC, 460delC, or 461delC), read-out: Drug susceptibility Foscarnet (FOS)): < 250 µM
- IC50 (read-out: Drug susceptibility (IC50 value), isolate HPG034, HSV-2 TK L313S (938A>C)): 73.5 µM
- IC50 (read-out: Drug susceptibility (IC50 value), isolate HPG056, HSV-2 pol M447L (1339A>C)): 88 µM
- IC50 (read-out: Drug susceptibility Foscarnet (FOS), isolate HPG056, HSV-2 pol M447L (1339A>C)): < 250 µM
